Read-outs that look alike come from different tables or passages of the source.
How the values were obtained:
α1D adrenoceptors = target: T1, α1D adrenoceptors (Rattus norvegicus, UniProt P23944); experiment: Phenylephrine-induced contraction inhibition in rat aorta (isometric contraction, Schild KB); format: cell-based; design: CR: concentration ratio CR = EC′50/EC50 (with/without antagonist); settings: for Kb / log KB ± EPM (M): Schild equation; for CR ± EPM: ratio of EC50 in presence and absence of test substance
T1 construct: the rat thoracic aorta corresponds to a tissue expressing mainly α1D-adrenoceptors; from tissue; host or cells: rat thoracic aorta rings
T1 sequence (P23944 1-561): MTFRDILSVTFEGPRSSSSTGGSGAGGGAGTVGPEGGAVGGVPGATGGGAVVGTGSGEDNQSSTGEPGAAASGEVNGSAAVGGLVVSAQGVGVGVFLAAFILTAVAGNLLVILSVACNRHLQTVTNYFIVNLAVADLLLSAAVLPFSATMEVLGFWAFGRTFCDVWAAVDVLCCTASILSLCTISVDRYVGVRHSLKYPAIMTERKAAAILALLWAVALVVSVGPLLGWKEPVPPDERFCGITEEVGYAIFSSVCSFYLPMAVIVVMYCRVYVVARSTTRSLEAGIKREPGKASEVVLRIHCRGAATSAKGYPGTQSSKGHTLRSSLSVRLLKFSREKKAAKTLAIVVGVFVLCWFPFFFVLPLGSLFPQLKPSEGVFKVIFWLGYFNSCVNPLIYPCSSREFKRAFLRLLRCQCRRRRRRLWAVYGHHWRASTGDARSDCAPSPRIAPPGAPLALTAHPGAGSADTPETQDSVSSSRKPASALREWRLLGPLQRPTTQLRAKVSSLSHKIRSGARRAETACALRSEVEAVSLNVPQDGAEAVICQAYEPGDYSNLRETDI
Experimental: Isometric contraction assays were performed using Male Wistar rats, aged 2.5-3 months euthanized as described above. The thoracic aorta (tissue enriched in functional α1D adrenergic receptors) was removed, free from adjacent connective and adipose tissues cut in 3 mm segments. […] The aort segments were then subjected to a preload of 20 mN per 60 minutes. After recovery of tissues maintained for 1 hour at rest, it was performed a contraction induced by phenylephrine (PE) 1 μM (α1 adrenergic receptors selective agonist). In this plateau contraction, in order to promote endothelium-dependent relaxation resulting from the activation of the enzyme endothelial nitric oxide synthase (eNOS) and subsequent release of nitric oxide (NO), acetylcholine 1 μM was added. Rings that relaxed at least 80% were considered to have intact endothelium, were used.
Then the preparation was washed and allowed to stand for 1 hour in order to recover the tissue. Then it was performed cumulative curves to phenylephrine (10^−9 to 10^−5 M) in the presence of propranolol 1 μM (β-adrenoceptor blocker receptors) before and after incubation for 1 hour of the LDT's at 10 or 50 nM. In parallel, a temporal control was performed to rule out any artifacts on the measured contraction, where was added only the vehicle (ultrapure water Milli Q®) instead of the substance to be tested. Strictly following the same protocol as the other tanks wherein it was added the LDT's.
The data were scanned in MacLab 8S system connected to the isometric tension transducer Grass FT-03, which recorded the voltage variation in milinewtons (mN) generated throughout the analysis. The digitized data were then analyzed by Chart 3.4/s software program (MacLab, Inc., USA). In the pharmacological screening process, the initial concentration of the used LDT's was 50 nM, which is considered as cut concentration, i.e., substances that have no effect at this concentration would not investigated in this test. […] The ratio of the EC50 value in these two conditions (with and without LDT) matches the third parameter, called “concentration ratio” (or RC).
log(CR−1)=log [B]−log KB (Equation 1)
Where CR=concentration ratio (EC′50/EC50); [B]=‘B’ antagonist concentration; KB=equilibrium dissociation constant of the antagonist ‘B’.
With this in view, the functional tests of contraction in isolated organ model were performed using these tissues. […] Similarly, targeting to rule out any artifacts on the measured contraction, a time control was performed where only the vehicle was added (ultrapure Mili Q® water) in place of the substance to be tested, strictly following the same protocol as the other vats were added to the LDT's (FIG. 1).

5-HT2A receptors = target: T2, 5-HT2A receptors (Rattus norvegicus, UniProt P14842); experiment: [3H]-ketanserin binding to 5-HT2A receptors (rat cortex membranes)
T2 construct: from tissue; host or cells: rat cortex membranes
Experimental: Membrane preparations of rat cortex as described previously in the literature were performed. The organs were homogenized in a Potter with the aid of a motor unit (Fisatom) and Teflon piston in the proportion of 20 parts of 50 mM Tris HCl (pH 7.4 at 4° C.) for one piece of material, three times for 30 seconds each time, at intervals the solution was allowed to stand on ice for 1 minute.
Then it was performed a centrifugation at 900×g for 10 minutes at 4° C. It was obtained a […] which was resuspended in solution cold 50 mM Tris-HCl (pH 7.4) and the same procedure was performed once more. The supernatant was then centrifuged at 48,000×g for 10 minutes at 4° C. yielding a pellet which was resuspended at a ratio of 20 parts of 50 mM Tris HCl (pH 7.4 at 4° C.) for one piece of material, and incubated at 37° C. for 10 minutes in order to remove the endogenous neurotransmitters. Finally, centrifugation two times more at 48,000×g was performed for 10 minutes at 4° C., and then the final pellet was resuspended in a solution of 50 mM Tris-HCl (pH 7.4).
The binding assays for 5-HT2A receptors were performed as described in the literature. […] (solvent for dilution of the LDT's), to determine the total binding, or 50 μL non-radioactive ketanserin at 10 μM for the determination of nonspecific binding (final volume of 500 μL). Assays were performed in triplicate.
After the incubation period, the reaction was stopped by adding 4 ml of ice-cold solution containing 5 mM Tris (pH 7.4), followed by vacuum filtration on glass fiber filter (GMF 3, Filtrak®) previously soaked with solution 0.5% polyethylenoimine The filters were washed three times with 4 mL of ice-cold solution containing 5 mM Tris (pH 7.4) under vacuum to remove all free radioligand. Then the filters were dried and placed in vials containing 5 ml scintillation fluid (4% PPO, 0.1% POPOP w/v in toluene). The radioactivity retained on the filters was then determined in a liquid scintillation counter (Packard Tri-Carb 1600 TR). […] To these receptors were also determined CI50 and Ki parameters.

[1] = KB (nM), Table 1, test substance at 50 nM (a), 10 nM (b) or 2 nM (c)
[2] = log KB ± EPM (M), Table 1, test substance at 50 nM (a), 10 nM (b) or 2 nM (c)
[3] = Table 10, Cheng-Prusoff, read-out: Ki
[4] = Table 10, read-out: log CI50 ± EPM (converted)
[5] = Table 2, 50 nM (62-69) or 10 nM (70, 39)
[6] = Table 2, 50 nM (62-69) or 10 nM (70, 39), read-out: KB
[7] = Table 2, phenylephrine curve in presence of LTD 10 nM (70 and 39)
[8] = Table 11, Cheng-Prusoff, read-out: Ki
[9] = Table 2, phenylephrine curve in presence of LTD 50 nM (62-69)

T2 sequence (P14842 whole entry): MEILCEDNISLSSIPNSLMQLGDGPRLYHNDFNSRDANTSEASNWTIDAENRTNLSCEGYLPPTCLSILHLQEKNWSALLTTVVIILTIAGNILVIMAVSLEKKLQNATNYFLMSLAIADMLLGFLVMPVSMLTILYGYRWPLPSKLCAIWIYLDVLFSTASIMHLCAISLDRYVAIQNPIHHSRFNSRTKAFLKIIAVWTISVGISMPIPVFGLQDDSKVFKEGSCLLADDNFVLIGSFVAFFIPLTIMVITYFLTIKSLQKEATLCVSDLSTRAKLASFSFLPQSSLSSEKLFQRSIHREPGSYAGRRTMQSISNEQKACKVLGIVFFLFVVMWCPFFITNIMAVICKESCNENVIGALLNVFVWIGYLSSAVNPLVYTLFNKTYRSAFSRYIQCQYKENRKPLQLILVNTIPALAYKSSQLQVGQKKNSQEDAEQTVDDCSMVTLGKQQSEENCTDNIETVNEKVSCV

COc1ccccc1N1CCN(CCc2ccccc2)CC1 [LDT 2]
Kb (α1D adrenoceptors; [1]): 2.15 nM | Kb (α1D adrenoceptors; [2]): 3.09 nM | CR ± EPM (α1D adrenoceptors; 50 nM): 24.3 ± 8.7 | IC50 (5-HT2A receptors): 74.1 nM | Ki (5-HT2A receptors): 47.4 nM

COc1cccc(CCN2CCN(c3ccccc3OC)CC2)c1 [LDT 3]
Kb (α1D adrenoceptors; [1]): 1.78 nM | CR ± EPM (α1D adrenoceptors; 50 nM): 29.1 ± 1.8 | IC50 (5-HT2A receptors): 70.8 nM | Ki (5-HT2A receptors): 45.2 nM

COc1ccc(CCN2CCN(c3ccccc3OC)CC2)cc1 [LDT 4]
Kb (α1D adrenoceptors; [1]): 3.14 nM | Kb (α1D adrenoceptors; [2]): 3.39 nM | CR ± EPM (α1D adrenoceptors; 50 nM): 16.9 ± 5.5 | IC50 (5-HT2A receptors): 69.2 nM | Ki (5-HT2A receptors): 44.2 nM

COc1ccc(CCN2CCN(c3ccccc3OC)CC2)cc1OC [LDT 5]
Kb (α1D adrenoceptors; [1]): 0.57 nM | Kb (α1D adrenoceptors; [2]): 0.589 nM | CR ± EPM (α1D adrenoceptors; 10 nM): 18.5 ± 2.5 | IC50 (5-HT2A receptors): 389 nM | Ki (5-HT2A receptors): 248 nM

COc1ccccc1N1CCN(CCC2CCCCC2)CC1 [LDT 6]
Ki (5-HT2A receptors; [3]): 376 nM | IC50 (5-HT2A receptors; [4]): 589 nM

CCOc1ccccc1N1CCN(CCc2ccc3c(c2)OCO3)CC1 [LDT 8]
Kb (α1D adrenoceptors; [1]): 0.16 nM | Kb (α1D adrenoceptors; [2]): 0.166 nM | CR ± EPM (α1D adrenoceptors; 10 nM): 62.5 ± 15.5 | Ki (5-HT2A receptors; [3]): 248 nM | IC50 (5-HT2A receptors; [4]): 389 nM

CCN1CCN(c2ccccc2)CC1 [LDT 39]
CR (α1D adrenoceptors; Table 2, LTD 10 nM (70 and 39)): 76.7 | log KB ± EPM (M) (α1D adrenoceptors; [5]): −6.85 ± 0.08a M | Kb (α1D adrenoceptors; [6]): 141 nM | log CE50 ± EPM (M) LDT (α1D adrenoceptors; [7]): −4.91 ± 0.05 M | log IC50 (M) (5-HT2A receptors; Table 11): −5.16 ± 0.16 M | Ki (5-HT2A receptors; [8]): 4440 nM

CCN1CCN(c2ccccc2OC)CC1 [LDT 62]
CR (α1D adrenoceptors; Table 2, LTD 50 nM (62-69)): 7 | log KB ± EPM (M) (α1D adrenoceptors; [5]): −8.08 ± 0.02 M | Kb (α1D adrenoceptors; [6]): 8.3 nM | log CE50 ± EPM (M) LDT (α1D adrenoceptors; [9]): −6.01 ± 0.06 M | log IC50 (M) (5-HT2A receptors; Table 11): −5.00 ± 0.06 M | Ki (5-HT2A receptors; [8]): 6410 nM

CCCN1CCN(c2ccccc2OC)CC1 [LDT 63]
CR (α1D adrenoceptors; Table 2, LTD 50 nM (62-69)): 3.1 | log KB ± EPM (M) (α1D adrenoceptors; [5]): −7.59 ± 0.12b M | Kb (α1D adrenoceptors; [6]): 31.5 nM | log CE50 ± EPM (M) LDT (α1D adrenoceptors; [9]): −6.80 ± 0.18 M | log IC50 (M) (5-HT2A receptors; Table 11): −4.86 ± 0.13 M | Ki (5-HT2A receptors; [8]): 8850 nM

CCCCN1CCN(c2ccccc2OC)CC1 [LDT 64]
CR (α1D adrenoceptors; Table 2, LTD 50 nM (62-69)): 6.4 | log KB ± EPM (M) (α1D adrenoceptors; [5]): −7.93 ± 0.13 M | Kb (α1D adrenoceptors; [6]): 11.7 nM | log CE50 ± EPM (M) LDT (α1D adrenoceptors; [9]): −6.18 ± 0.08 M | log IC50 (M) (5-HT2A receptors; Table 11): −5.06 ± 0.09 M | Ki (5-HT2A receptors; [8]): 5580 nM

CCCCCN1CCN(c2ccccc2OC)CC1 [LDT 65]
Kb (α1D adrenoceptors; KB (nM), Table 2, 50 nM (62-69) or 10 nM (70, 39)): 8.3 nM | CR (α1D adrenoceptors; Table 2, LTD 50 nM (62-69)): 7.0 | log CE50 ± EPM (M) LDT (α1D adrenoceptors; [9]): −5.89 ± 0.05 M | IC50 (5-HT2A receptors): 4570 nM | Ki (5-HT2A receptors): 2930 nM

CCCCCCN1CCN(c2ccccc2OC)CC1 [LDT 66]
CR (α1D adrenoceptors; Table 2, LTD 50 nM (62-69)): 32 | log KB ± EPM (M) (α1D adrenoceptors; [5]): −8.78 ± 0.06a M | Kb (α1D adrenoceptors; [6]): 1.66 nM | log CE50 ± EPM (M) LDT (α1D adrenoceptors; [9]): −5.29 ± 0.07 M | log IC50 (M) (5-HT2A receptors; Table 11): −5.57 ± 0.16b M | Ki (5-HT2A receptors; [8]): 1720 nM

CCCCCCCN1CCN(c2ccccc2OC)CC1 [LDT 67]
CR (α1D adrenoceptors; Table 2, LTD 50 nM (62-69)): 29.5 | log KB ± EPM (M) (α1D adrenoceptors; [5]): −8.74 ± 0.08a M | Kb (α1D adrenoceptors; [6]): 1.82 nM | log CE50 ± EPM (M) LDT (α1D adrenoceptors; [9]): −5.46 ± 0.08 M | log IC50 (M) (5-HT2A receptors; Table 11): −5.53 ± 0.13b M | Ki (5-HT2A receptors; [8]): 1890 nM

CCCCCCCCN1CCN(c2ccccc2OC)CC1 [LDT 68]
CR (α1D adrenoceptors; Table 2, LTD 50 nM (62-69)): 12.8 | log KB ± EPM (M) (α1D adrenoceptors; [5]): −8.36 ± 0.05 M | Kb (α1D adrenoceptors; [6]): 4.36 nM | log CE50 ± EPM (M) LDT (α1D adrenoceptors; [9]): −5.81 ± 0.06 M | log IC50 (M) (5-HT2A receptors; Table 11): −5.64 ± 0.08b M | Ki (5-HT2A receptors; [8]): 1470 nM

CCOc1ccccc1N1CCN(CC)CC1 [LDT 69]
CR (α1D adrenoceptors; Table 2, LTD 50 nM (62-69)): 6.9 | log KB ± EPM (M) (α1D adrenoceptors; [5]): −8.06 ± 0.08 M | Kb (α1D adrenoceptors; [6]): 8.71 nM | log CE50 ± EPM (M) LDT (α1D adrenoceptors; [9]): −5.87 ± 0.07 M | log IC50 (M) (5-HT2A receptors; Table 11): −5.02 ± 0.06 M | Ki (5-HT2A receptors; [8]): 6120 nM

CCN1CCN(c2ccccc2O)CC1 [LDT 70]
CR (α1D adrenoceptors; Table 2, LTD 10 nM (70 and 39)): 123.6 | log KB ± EPM (M) (α1D adrenoceptors; [5]): −7.07 ± 0.08a M | Kb (α1D adrenoceptors; [6]): 85.1 nM | log CE50 ± EPM (M) LDT (α1D adrenoceptors; [7]): −4.86 ± 0.09 M | log IC50 (M) (5-HT2A receptors; Table 11): −4.20 ± 0.03a M | Ki (5-HT2A receptors; [8]): 40400 nM

CCOc1ccccc1N1CCN(CCc2ccc(OC)c(OC)c2)CC1 [LDT 245]
Kb (α1D adrenoceptors; [1]): 1.16 nM | Kb (α1D adrenoceptors; [2]): 1.17 nM
